Read-outs that look alike come from different tables or passages of the source. Each block holds one molecule with its values, some of them ahead of it.
Key:
human orexin-1 receptor = human orexin-1 receptor (Homo sapiens (Human), UniProt O43613); test: In vitro assay: intracellular calcium measurements (FLIPR), antagonistic activity; type: cell-based; conditions: CHO cells, 3 nM orexin-A, marked values are geometric means of n = 2-6, read-out: IC50 OX1
human orexin-2 receptor = human orexin-2 receptor (Homo sapiens (Human), UniProt O43614); test: as above; type: cell-based; conditions: CHO cells, 3 nM orexin-A, marked values are geometric means of n = 2-6, read-out: IC50 OX2
human orexin-2 receptor, sequence (O43614 whole entry): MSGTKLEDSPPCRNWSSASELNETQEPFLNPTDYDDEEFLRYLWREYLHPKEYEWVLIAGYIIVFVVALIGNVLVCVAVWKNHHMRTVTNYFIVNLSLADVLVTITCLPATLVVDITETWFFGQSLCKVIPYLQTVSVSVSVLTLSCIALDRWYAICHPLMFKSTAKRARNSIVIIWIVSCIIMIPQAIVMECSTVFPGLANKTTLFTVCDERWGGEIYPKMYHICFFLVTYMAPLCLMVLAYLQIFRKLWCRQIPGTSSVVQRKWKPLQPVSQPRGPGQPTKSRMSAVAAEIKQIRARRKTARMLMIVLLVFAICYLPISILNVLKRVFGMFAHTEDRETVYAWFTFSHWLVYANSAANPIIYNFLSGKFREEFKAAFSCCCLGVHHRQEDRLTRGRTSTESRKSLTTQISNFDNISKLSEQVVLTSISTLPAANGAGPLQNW

[1] = compound incubation time of 10 min

human orexin-1 receptor, sequence (O43613 whole entry): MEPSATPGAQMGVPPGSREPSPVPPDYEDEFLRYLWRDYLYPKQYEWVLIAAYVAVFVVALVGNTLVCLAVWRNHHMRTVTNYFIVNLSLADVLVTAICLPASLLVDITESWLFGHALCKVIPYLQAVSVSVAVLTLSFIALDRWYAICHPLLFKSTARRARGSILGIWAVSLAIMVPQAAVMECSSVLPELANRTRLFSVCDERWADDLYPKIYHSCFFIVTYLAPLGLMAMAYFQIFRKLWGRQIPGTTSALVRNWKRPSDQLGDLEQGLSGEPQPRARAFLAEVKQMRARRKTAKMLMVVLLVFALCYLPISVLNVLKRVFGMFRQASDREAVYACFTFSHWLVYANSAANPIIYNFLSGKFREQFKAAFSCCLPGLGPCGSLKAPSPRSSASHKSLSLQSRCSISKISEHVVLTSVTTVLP

Compound: COc1ccc2nc(C)oc2c1C1CCCC(=O)N1Cc1ccc2ccccc2n1 (centres unmarked) [Example 279, 6-(6-methoxy-2-methylbenzo[d]oxazol-7-yl)-1-(quinolin-2-ylmethyl)piperidin-2-one]
IC50 (human orexin-1 receptor; compound incubation 120 min): 623 nM | IC50 (human orexin-2 receptor; compound incubation 120 min): 1030 nM

Compound: COc1cccc(OC)c1C1CCCCC(=O)N1Cc1cccc(-c2ccccc2)n1 (centres unmarked) [Example 82, 7-(2,6-dimethoxyphenyl)-1-((6-phenylpyridin-2-yl)methyl)azepan-2-one]
IC50 (human orexin-1 receptor; compound incubation 120 min): 7 nM | IC50 (human orexin-2 receptor; compound incubation 120 min): 26 nM

Compound: COc1cccc(OC)c1C1CCCC(=O)N1Cc1ccc(Oc2ccccc2)nc1 (centres unmarked) [Example 192, 6-(2,6-dimethoxyphenyl)-1-((6-phenoxypyridin-3-yl)methyl)piperidin-2-one]
IC50 (human orexin-1 receptor; [1]): 361 nM | IC50 (human orexin-2 receptor; [1]): 29 nM

Compound: CCOc1cccc(F)c1C1CC(C)C(=O)N1Cc1ccnc(-c2ncc(C)s2)c1 (centres unmarked) [Example 380, 5-(2-ethoxy-6-fluorophenyl)-3-methyl-1-((2-(5-methylthiazol-2-yl)pyridin-4-yl)methyl)pyrrolidin-2-one]
IC50 (human orexin-1 receptor; compound incubation 120 min): 131 nM | IC50 (human orexin-2 receptor; compound incubation 120 min): 2 nM

Compound: CCOc1cccc(F)c1C1CC(C)C(=O)N1Cc1cccc(-c2nc(Cl)cs2)c1 (centres unmarked) [Example 385, 1-(3-(4-chlorothiazol-2-yl)benzyl)-5-(2-ethoxy-6-fluorophenyl)-3-methylpyrrolidin-2-one]
IC50 (human orexin-1 receptor; compound incubation 120 min): 64 nM | IC50 (human orexin-2 receptor; compound incubation 120 min): 2 nM

Compound: COc1cccc(OC)c1C1CCCC(=O)N1Cc1ccnc(N2CCCC2)c1 (centres unmarked) [Example 34, 6-(2,6-dimethoxyphenyl)-1-((2-(pyrrolidin-1-yl)pyridin-4-yl)methyl)piperidin-2-one]
IC50 (human orexin-1 receptor; compound incubation 120 min): 1050 nM | IC50 (human orexin-2 receptor; compound incubation 120 min): 2060 nM

Compound: CC1CC(c2c(F)cccc2OCCO)N(Cc2ccc(OC(F)(F)F)cc2)C1=O (centres unmarked) [Example 416, 5-(2-fluoro-6-(2-hydroxyethoxy)phenyl)-3-meetthyl-1-(4-(trifluoromethoxy)benzyl)pyrrolidin-2-one]
IC50 (human orexin-1 receptor; compound incubation 120 min): 2940 nM | IC50 (human orexin-2 receptor; compound incubation 120 min): 59 nM

Compound: COc1cccc(OC)c1C1CCCCC(=O)N1Cc1ccc2oc3ccccc3c2c1 (centres unmarked) [Example 90, 1-(dibenzo[b,d]furan-2-ylmethyl)-7-(2,6-dimethoxyphenyl)azepan-2-one]
IC50 (human orexin-1 receptor; compound incubation 120 min): 1 nM | IC50 (human orexin-2 receptor; compound incubation 120 min): 3 nM

Compound: COc1ccnc(OC)c1C1CCCC(=O)N1Cc1cccc(-c2ccccn2)c1 (centres unmarked) [Example 55, 6-(2,4-dimethoxypyridin-3-yl)-1-(3-(pyridin-2-yl)benzyl)piperidin-2-one]
IC50 (human orexin-1 receptor; compound incubation 120 min): 96 nM | IC50 (human orexin-2 receptor; compound incubation 120 min): 95 nM

Compound: COc1cccc(OC)c1C1CCCC(=O)N1Cc1cccc(-c2ccccn2)c1 (centres unmarked) [Example 10, 6-(2,6-dimethoxyphenyl)-1-(3-(pyridin-2-yl)benzyl)piperidin-2-one]
IC50 (human orexin-1 receptor; compound incubation 120 min): 9 nM | IC50 (human orexin-2 receptor; compound incubation 120 min): 8 nM

Compound: COc1cccc(OC)c1C1CC(C)C(=O)N1Cc1cccc(OC(F)F)c1 (centres unmarked) [Example 198, 1-(3-(difluoromethoxy)benzyl)-5-(2,6-dimethoxyphenyl)-3-methylpyrrolidin-2-one]
IC50 (human orexin-1 receptor; [1]): 117 nM | IC50 (human orexin-2 receptor; [1]): 96 nM

Compound: COc1cccc(OC)c1C1CC(C)C(=O)N1Cc1ccc(OCC(F)F)cc1 (centres unmarked) [Example 420, 1-(4-(2,2-difluoroethoxy)benzyl)-5-(2,6-dimethoxyphenyl)-3-methylpyrrolidin-2-one]
IC50 (human orexin-1 receptor; compound incubation 120 min): 586 nM | IC50 (human orexin-2 receptor; compound incubation 120 min): 549 nM

Compound: COc1cncc(OC)c1C1CCCCC(=O)N1Cc1csc(-c2ccccc2)n1 (centres unmarked) [Example 277, 7-(3,5-dimethoxypyridin-4-yl)-1-((2-phenylthiazol-4-yl)methyl)azepan-2-one]
IC50 (human orexin-1 receptor; compound incubation 120 min): 214 nM | IC50 (human orexin-2 receptor; compound incubation 120 min): 182 nM

Compound: COc1cccc(OC)c1C1CCC(=O)N1Cc1ccc2ccccc2c1 (centres unmarked) [Example 111, 5-(2,6-dimethoxyphenyl)-1-(naphthalen-2-ylmethyl)pyrrolidin-2-one]
IC50 (human orexin-1 receptor; [1]): 168 nM | IC50 (human orexin-2 receptor; [1]): 113 nM

Compound: COc1cccc(OC)c1C1CCCC(=O)N1Cc1cccc(OC(F)F)n1 (centres unmarked) [Example 183, 1-((6-(difluoromethoxy)pyridin-2-yl)methyl)-6-(2,6-dimethoxyphenyl)piperidin-2-one]
IC50 (human orexin-1 receptor; [1]): 644 nM | IC50 (human orexin-2 receptor; [1]): 64 nM

Compound: COc1cccc(C)c1C1CCCC(=O)N1Cc1ccc(OC(F)(F)F)cc1 (centres unmarked) [Example 222, 6-(2-methoxy-6-methylphenyl)-1-(4-(trifluoromethoxy)benzyl)piperidin-2-one]
IC50 (human orexin-1 receptor; [1]): 4380 nM | IC50 (human orexin-2 receptor; [1]): 268 nM

Compound: COc1cccc(OC)c1C1CC(C)C(=O)N1Cc1ccccc1OC(F)(F)F (centres unmarked) [Example 405, 5-(2,6-dimethoxyphenyl)-3-methyl-1-(2-(trifluoromethoxy)benzyl)pyrrolidin-2-one]
IC50 (human orexin-1 receptor; compound incubation 120 min): 555 nM | IC50 (human orexin-2 receptor; compound incubation 120 min): 87 nM

Compound: CCOc1ccccc1C1CCCC(=O)N1Cc1ccc(OC(F)(F)F)cc1 (centres unmarked) [Example 251, 6-(2-ethoxyphenyl)-1-(4-(trifluoromethoxy)benzyl)piperidin-2-one]
IC50 (human orexin-1 receptor; [1]): 4070 nM | IC50 (human orexin-2 receptor; [1]): 426 nM

Compound: COc1cccc(OC)c1C1CCCC(=O)N1Cc1cccc(OC(F)(F)F)c1 (centres unmarked) [Example 175, 6-(2,6-dimethoxyphenyl)-1-(3-(trifluoromethoxy)benzyl)piperidin-2-one]
IC50 (human orexin-1 receptor; [1]): 136 nM | IC50 (human orexin-2 receptor; [1]): 94 nM

Compound: COc1cccc(OC)c1C1CCC(=O)N1Cc1nc2ccccc2s1 (centres unmarked) [Example 128, 1-(benzo[d]thiazol-2-ylmethyl)-5-(2,6-dimethoxyphenyl)pyrrolidin-2-one]
IC50 (human orexin-1 receptor; compound incubation 120 min): 3880 nM | IC50 (human orexin-2 receptor; compound incubation 120 min): 2050 nM

Compound: COc1ccc2c(c1C1CCCC(=O)N1Cc1cccc(Oc3ccccc3)c1)OCO2 (centres unmarked) [Example 458, 6-(5-methoxybenzo[d][1,3]dioxol-4-yl)-1-(3-phenoxybenzyl)piperidin-2-one]
IC50 (human orexin-1 receptor; compound incubation 120 min): 142 nM | IC50 (human orexin-2 receptor; compound incubation 120 min): 14 nM

Compound: COc1cccc(OC)c1C1CC(C)C(=O)N1Cc1ccc(OCC(F)(F)F)cc1 (centres unmarked) [Example 418, 5-(2,6-dimethoxyphenyl)-3-methyl-1-(4-(2,2,2-trifluoroethoxy)benzyl)pyrrolidin-2-one]
IC50 (human orexin-1 receptor; compound incubation 120 min): 430 nM | IC50 (human orexin-2 receptor; compound incubation 120 min): 323 nM

Compound: COc1cccc(OC)c1C1CC(C)C(=O)N1Cc1cc(Cl)cc(-c2ccccn2)c1 (centres unmarked) [Example 152, 1-(3-chloro-5-(pyridin-2-yl)benzyl)-5-(2,6-dimethoxyphenyl)-3-methylpyrrolidin-2-one]
IC50 (human orexin-1 receptor; compound incubation 120 min): 74 nM | IC50 (human orexin-2 receptor; compound incubation 120 min): 270 nM

IC50 (human orexin-1 receptor; compound incubation 120 min): 575 nM | IC50 (human orexin-2 receptor; compound incubation 120 min): 63 nM
Compound: CCOc1cc(F)cc(F)c1[C@@H]1C[C@H](Cl)C(=O)N1Cc1ccc(OC(F)(F)F)cc1 (racemic) [Example 439, rac-(3S*,5S*)-3-chloro-5-(2-ethoxy-4,6-difluorophenyl)-1-(4-(trifluoromethoxy)benzyl)pyrrolidin-2-one]

Compound: COc1cccc(OC)c1C1CCCC(=O)N1Cc1ccc(-c2ccccc2)cc1 (centres unmarked) [Example 244, 1-([1,1′-biphenyl]-4-ylmethyl)-6-(2,6-dimethoxyphenyl)piperidin-2-one]
IC50 (human orexin-1 receptor; [1]): 1090 nM | IC50 (human orexin-2 receptor; [1]): 72 nM

IC50 (human orexin-1 receptor; compound incubation 120 min): 655 nM | IC50 (human orexin-2 receptor; compound incubation 120 min): 21 nM
Compound: CCOc1cccc(F)c1[C@@H]1C[C@H](F)C(=O)N1Cc1ccc(OC(F)(F)F)c(F)c1 (racemic) [Example 434, rac-(3S*,5S*)-5-(2-ethoxy-6-fluorophenyl)-3-fluoro-1-(3-fluoro-4-(trifluoromethoxy)benzyl)pyrrolidin-2-one]

Compound: COc1cccc(OC)c1C1CC(C)C(=O)N1Cc1cccc(N2CCCC2)c1 (centres unmarked) [Example 123, 5-(2,6-dimethoxyphenyl)-3-methyl-1-(3-(pyrrolidin-1-yl)benzyl)pyrrolidin-2-one]
IC50 (human orexin-1 receptor; compound incubation 120 min): 13 nM | IC50 (human orexin-2 receptor; compound incubation 120 min): 74 nM

Compound: COc1cccc(OC)c1C1CC(C)C(=O)N1Cc1cccc(N2CCCCC2)c1 (centres unmarked) [Example 134, 5-(2,6-dimethoxyphenyl)-3-methyl-1-(3-(piperidin-1-yl)benzyl)pyrrolidin-2-one]
IC50 (human orexin-1 receptor; compound incubation 120 min): 37 nM | IC50 (human orexin-2 receptor; compound incubation 120 min): 157 nM

Compound: COc1cccc(OC)c1C1CCCCC(=O)N1Cc1cccc(-c2ncc(C)s2)c1 (centres unmarked) [Example 100, 7-(2,6-dimethoxyphenyl)-1-(3-(5-methylthiazol-2-yl)benzyl)azepan-2-one]
IC50 (human orexin-1 receptor; compound incubation 120 min): 1 nM | IC50 (human orexin-2 receptor; compound incubation 120 min): 3 nM

IC50 (human orexin-1 receptor; compound incubation 120 min): 981 nM | IC50 (human orexin-2 receptor; compound incubation 120 min): 17 nM
Compound: CCOc1ccc(F)c(F)c1[C@@H]1C[C@H](F)C(=O)N1Cc1ccc(OC(F)(F)F)cc1 (racemic) [Example 340, rac-(3S*,5S*)-5-(6-ethoxy-2,3-difluorophenyl)-3-fluoro-1-(4-(trifluoromethoxy)benzyl)pyrrolidin-2-one]

Compound: O=C1CCCCC(c2ccccc2-c2cccnc2)N1Cc1cccc(-c2nccs2)c1 (centres unmarked) [Example 453, 7-(2-(pyridin-3-yl)phenyl)-1-(3-(thiazol-2-yl)benzyl)azepan-2-one]
IC50 (human orexin-1 receptor; compound incubation 120 min): 381 nM | IC50 (human orexin-2 receptor; compound incubation 120 min): 93 nM

Compound: COc1ccc(CN2C(=O)CCCC2c2c(OC)cccc2OC)cc1 (centres unmarked) [Example 159, 6-(2,6-dimethoxyphenyl)-1-(4-methoxybenzyl)piperidin-2-one]
IC50 (human orexin-1 receptor; [1]): 684 nM | IC50 (human orexin-2 receptor; [1]): 397 nM

Compound: COc1cccc(F)c1C1CC(C)C(=O)N1Cc1ccc2ccccc2n1 (centres unmarked) [Example 359, 5-(2-fluoro-6-methoxyphenyl)-3-methyl-1-(quinolin-2-ylmethyl)pyrrolidin-2-one]
IC50 (human orexin-1 receptor; compound incubation 120 min): 1710 nM | IC50 (human orexin-2 receptor; compound incubation 120 min): 334 nM

Compound: COc1cccc(OC)c1C1CC(C)C(=O)N1Cc1ccc2c(c1)c1ccccc1n2C (centres unmarked) [Example 387, 5-(2,6-dimethoxyphenyl)-3-methyl-1-((9-methyl-9H-carbazol-3-yl)methyl)pyrrolidin-2-one]
IC50 (human orexin-1 receptor; compound incubation 120 min): 100 nM | IC50 (human orexin-2 receptor; compound incubation 120 min): 111 nM

Compound: COc1cccc(OC)c1C1CCCC(=O)N1Cc1ccc(OCC(F)(F)F)cc1 (centres unmarked) [Example 246, 6-(2,6-dimethoxyphenyl)-1-(4-(2,2,2-trifluoroethoxy)benzyl)piperidin-2-one]
IC50 (human orexin-1 receptor; [1]): 665 nM | IC50 (human orexin-2 receptor; [1]): 11 nM

Compound: CCOc1cccc(F)c1C1CC(C)C(=O)N1Cc1cccc(OC(F)(F)F)c1 (centres unmarked) [Example 371, 5-(2-ethoxy-6-fluorophenyl)-3-methyl-1-(3-(trifluoromethoxy)benzyl)pyrrolidin-2-one]
IC50 (human orexin-1 receptor; compound incubation 120 min): 386 nM | IC50 (human orexin-2 receptor; compound incubation 120 min): 19 nM

Compound: COc1cccc(OC)c1C1CCCC(=O)N1Cc1ccc2c(c1)nnn2C (centres unmarked) [Example 243, 6-(2,6-dimethoxyphenyl)-1-((1-methyl-1H-benzo[d][1,2,3]triazol-5-yl)methyl)piperidin-2-one]
IC50 (human orexin-1 receptor; [1]): 10100 nM | IC50 (human orexin-2 receptor; [1]): 311 nM

Reference: patent US9242970B2 (ACTELION PHARMACEUTICALS LTD., priority 2010, dated 2016)
